Earlier results on one compound are cited in patent US20050084507A1, “Liquid preparations and surfactant/solvent systems” (priority 1999, published 2005).

≈ marks a conversion by molar mass, not a printed value.

Turning to `CCOC1Oc2ccc(OS(C)(=O)=O)cc2C1(C)C` (stereo not shown) [ethofumesate], the solubility in water was 50 µg/mL (≈ 175 µM).
